Results published in article PMC9408963 (International Journal of Molecular Sciences, 2022).
Values after ≈ are worked out from the molar mass of the structure shown. Values joined by “and” are separate entries in the source; they are usually repeats but may differ in a detail not shown here. Equal values may be shown once. Where a name gives a salt, the structure may show the parent alone. Read-outs that look alike come from different tables or passages of the source.

Columns and labels:
[1] = system: Xanthomonas oryzae pv. oryzae (Xoo); assay: microbe, parasite or virus in culture; type: cell-based; conditions: for MIC: Xanthomonas oryzae
[2] = system: Xanthomonas oryzae pv. oryzae (Xoo); assay: microbe, parasite or virus in culture; type: cell-based; conditions: for EC50 / inhibition at 20 µg/mL / inhibition at 100 µg/mL: Xanthomonas oryzae; for EC50: read-out: EC50 for inhibition of Xoo growth; for inhibition at 20 µg/mL / inhibition at 100 µg/mL: read-out: Inhibition (%) of Xoo growth
in vitro = conditions: rat
rice plants = conditions: in vivo
[3] = target: T1, recombinant XooFtsZ GTPase (Xanthomonas oryzae pv. oryzae, UniProt A0ACG7R862); assay: biochemical; conditions: for inhibition at 100 µM / inhibition at 200 µM: read-out: Inhibition Rate (%) of XooFtsZ GTPase activity
Xoo cells = type: cell-based, Xanthomonas oryzae pv. oryzae; design: average Xoo cell length: unit not given here; conditions: TEM
XooFtsZ [4] = type: binding, Xanthomonas oryzae pv. oryzae; conditions: pH 7.4
[5] = system: rice bacterial leaf blight infected by Xoo; type: in vivo; design: curative control efficiency against rice bacterial leaf blight: dose or concentration left out as unconfirmed
XooFtsZ [6] = type: biochemical, Xanthomonas oryzae pv. oryzae; conditions: TEM, 20 μM XooFtsZ, 100 and 200 μM compound
[7] = system: human non-small cell lung cancer cell line (A549)
[8] = target: T1, recombinant XooFtsZ GTPase; conditions: read-out: IC50 XooFtsZ GTPase activity; cited from earlier work
[9] = system: rice bacterial leaf blight infected by Xoo; conditions: in vivo; cited from earlier work
[10] = read-out: MIC against Xoo, in vitro

In the case of `COc1cc(C2c3cc4c(cc3C(O)C3COC(=O)C23)OCO4)cc(OC)c1OCC1CO1` (stereo not shown) [A1], the MIC [1, 10] is reported as > 400 µg/mL, the EC50 [2] is reported as > 200 µg/mL and the inhibition at 20 µg/mL [2] is reported as 10.6 ± 0.9%. The inhibition at 100 µg/mL [2] was 18.3 ± 2.15%.

With `CCC(CC)C(=O)Oc1c(OC)cc(C2c3cc4c(cc3C(O)C3COC(=O)C23)OCO4)cc1OC` (stereo not shown) [B1] the MIC [1, 10] was > 400 µg/mL, the EC50 [2] was > 200 µg/mL and the inhibition at 20 µg/mL [2] was 5.33 ± 1.13%. The inhibition at 100 µg/mL [2] was 17.4 ± 6%.

With `CCCCC(CC)C(=O)Oc1c(OC)cc(C2c3cc4c(cc3C(O)C3COC(=O)C23)OCO4)cc1OC` (stereo not shown) [B2] the IC50 (in vitro) was 60.8 µM, the “phytotoxicity to rice plants” value (rice plants) was “non-toxic” and the IC50 [3] was 159 ± 16.7 µM. For the same compound, the inhibition at 100 µM [3] was 48.6 ± 4.1%, the inhibition at 200 µM [3] was 54.8 ± 5.2% and the “average Xoo cell length” value (Xoo cells; 100 mg L^−1, 12 h) was 4.03 ± 2.20. For the same compound, the “average Xoo cell length” value (Xoo cells; 100 mg L^−1, 24 h) was 5.86 ± 3.23, the “Stern–Volmer quenching constant Kq” value (XooFtsZ [4]; 10 μM XooFtsZ, 25 °C) was 3.845 × 10^11 M^−1 S^−1 and the “Stern–Volmer quenching constant Ksv” value (XooFtsZ [4]; 10 μM XooFtsZ, 25 °C) was 3845 M⁻¹. For the same compound, the “curative control efficiency against rice bacterial leaf blight” value (from here on “curative control efficiency”) ([5]; pot experiments) was 54.9%, the “protective control efficiency against rice bacterial leaf blight” value (from here on “protective control efficiency”) ([5]; pot experiments) was 48.4% and the EC50 [2] was 153 ± 9.2 µg/mL (≈ 291 µM). For the same compound, the inhibition at 20 µg/mL [2] was 7.3 ± 2.2%, the inhibition at 100 µg/mL [2] was 44.2 ± 3.2% and the “effect on XooFtsZ self-assembly” value (XooFtsZ [6]) was “fewer single-stranded protofilaments and an increase in disordered and disorganized protein aggregation”. For the same compound, the “cytotoxicity (comparison)” value [7] was “more cytotoxic than either DMEP or gefitinib”.

In the case of `COc1cc(C2c3cc4c(cc3C(O)C3COC(=O)C23)OCO4)cc(OC)c1OS(=O)(=O)c1ccc(C)cc1` (stereo not shown) [B3], the MIC [1, 10] is reported as > 400 µg/mL, the EC50 [2] is reported as > 200 µg/mL and the inhibition at 20 µg/mL [2] is reported as 4.33 ± 0.8%. It also gave an inhibition at 100 µg/mL [2] of 10.2 ± 1.2%.

For `S=c1[nH]nc(NCNc2n[nH]c(=S)s2)s1` [BT, bismerthiazol], the “MIC against Xoo” value ([1]; in vitro) was 50 µg/mL (≈ 180 µM), the “Inhibition (%) of Xoo growth” value ([2]; 20 mg L^−1) was 30.0 ± 2.20% and the “Inhibition (%) of Xoo growth” value ([2]; 100 mg L^−1) was 92.7 ± 1.70%. For the same compound, the “EC50 for inhibition of Xoo growth” value ([2]; in vitro) was 36.3 ± 2.50 µg/mL.

In the case of `COc1ccc2cc3[n+](cc2c1OC)CCc1cc2c(cc1-3)OCO2` [Berberine, Berberine hydrochloride], the IC50 [3] is reported as 225 ± 18.5 µM, the inhibition at 100 µM [3] is reported as 34.1 ± 2.6% and the inhibition at 200 µM [3] is reported as 48.7 ± 4.1%. For the same compound, the “Stern–Volmer quenching constant Kq” value (XooFtsZ [4]; 10 μM XooFtsZ, 25 °C) was 1.789 × 10^12 M^−1 S^−1 and the “Stern–Volmer quenching constant Ksv” value (XooFtsZ [4]; 10 μM XooFtsZ, 25 °C) was 17890 M⁻¹.

In the case of `COc1cc(C2c3cc4c(cc3C(O)C3COC(=O)C23)OCO4)cc(OC)c1O` (stereo not shown) [DMEOP, 4′-demethylpodophyllotoxin], the “MIC against Xoo” value [1] is reported as >400 µg/mL, the “Stern–Volmer quenching constant Kq” value (XooFtsZ [4]) is reported as 1.757 × 10^11 M^−1 S^−1 and the “Stern–Volmer quenching constant Ksv” value (XooFtsZ [4]) is reported as 1757 M⁻¹. For the same compound, the “EC50 for inhibition of Xoo growth” value [2] was >200 µg/mL.

For `COc1cc([C@@H]2c3cc4c(cc3[C@@H](O)[C@H]3COC(=O)[C@H]23)OCO4)cc(OC)c1O` [DMEP, 4′-demethylepipodophyllotoxin], the IC50 [8] is listed as 279 µM and 278 µM, the “MIC against Xoo” value [1] is listed as 50 µg/mL (≈ 125 µM) and the “curative control efficiency” value [9] is listed as 50.0%. For the same compound, the “protective control efficiency” value [9] was 46.8%, the “Stern–Volmer quenching constant Kq” value (XooFtsZ [4]) was 7.593 × 10^11 M^−1 S^−1 and the “Stern–Volmer quenching constant Ksv” value (XooFtsZ [4]) was 7593 M⁻¹. For the same compound, the “EC50 for inhibition of Xoo growth” value [2] was 39.7 µg/mL and 38.7 µg/mL.

For `COc1cc([C@@H]2c3cc4c(cc3C[C@H]3COC(=O)[C@@H]32)OCO4)cc(OC)c1OC` [Deoxypodophyllotoxin], the MIC [1, 10] was > 400 µg/mL, the “Stern–Volmer quenching constant Kq” value (XooFtsZ [4]; 10 μM XooFtsZ, 25 °C) was 2.276 × 10^11 M^−1 S^−1 and the “Stern–Volmer quenching constant Ksv” value (XooFtsZ [4]; 10 μM XooFtsZ, 25 °C) was 2276 M⁻¹. For the same compound, the EC50 [2] was > 200 µg/mL, the inhibition at 20 µg/mL [2] was 12.2 ± 4.8% and the inhibition at 100 µg/mL [2] was 10.3 ± 3.5%.

For `COc1cc([C@@H]2c3cc4c(cc3[C@@H](O[C@@H]3O[C@@H]5CO[C@@H](C)O[C@H]5[C@H](O)[C@H]3O)[C@H]3COC(=O)[C@H]23)OCO4)cc(OC)c1O` [Etoposide], the MIC [1, 10] was > 400 µg/mL, the “effect on Xoo cell morphology” value (Xoo cells; 100 mg L^−1, 24 h) was “induced cellular elongation” and the “Stern–Volmer quenching constant Kq” value (XooFtsZ [4]; 10 μM XooFtsZ, 25 °C) was 2.396 × 10^11 M^−1 S^−1. For the same compound, the “Stern–Volmer quenching constant Ksv” value (XooFtsZ [4]; 10 μM XooFtsZ, 25 °C) was 2396 M⁻¹, the EC50 [2] was > 200 µg/mL and the inhibition at 100 µg/mL [2] was 18.8 ± 9.6%.

With `COc1cc([C@@H]2c3cc4c(cc3[C@H](O)[C@H]3COC(=O)[C@@H]23)OCO4)cc(OC)c1OC` [Picropodophyllotoxin] the MIC ([1]; read-out: MIC against Xoo) was > 400 µg/mL, the “Stern–Volmer quenching constant Kq” value (XooFtsZ [4]) was 3.603 × 10^11 M^−1 S^−1 and the “Stern–Volmer quenching constant Ksv” value (XooFtsZ [4]) was 3603 M⁻¹. The EC50 [2] was > 200 µg/mL.

In the case of `COc1cc([C@@H]2c3cc4c(cc3[C@H](O)[C@H]3COC(=O)[C@H]23)OCO4)cc(OC)c1OC` [Podophyllotoxin], the MIC ([1]; read-out: MIC against Xoo) is reported as > 400 µg/mL, the “Stern–Volmer quenching constant Kq” value (XooFtsZ [4]) is reported as 2.203 × 10^11 M^−1 S^−1 and the “Stern–Volmer quenching constant Ksv” value (XooFtsZ [4]) is reported as 2203 M⁻¹. For the same compound, the EC50 [2] was > 200 µg/mL.

For `Nc1nnc([S-])s1.Nc1nnc([S-])s1.[Cu+2]` [TC, Thiodiazole copper], the “curative control efficiency” value ([5]; in vivo) was 31.2% and the “protective control efficiency” value ([5]; in vivo) was 30.4%.

In the case of `COc1cc([C@@H]2c3cc4c(cc3[C@@H](O[C@@H]3O[C@@H]5CO[C@@H](c6cccs6)O[C@H]5[C@H](O)[C@H]3O)[C@H]3COC(=O)[C@H]23)OCO4)cc(OC)c1O` [Teniposide], the MIC [1, 10] is reported as > 400 µg/mL, the “effect on Xoo cell morphology” value (Xoo cells; 100 mg L^−1, 24 h) is reported as “induced cellular elongation” and the “Stern–Volmer quenching constant Kq” value (XooFtsZ [4]; 10 μM XooFtsZ, 25 °C) is reported as 2.920 × 10^11 M^−1 S^−1. For the same compound, the “Stern–Volmer quenching constant Ksv” value (XooFtsZ [4]; 10 μM XooFtsZ, 25 °C) was 2920 M⁻¹, the EC50 [2] was > 200 µg/mL and the inhibition at 100 µg/mL [2] was 20.3 ± 9.21%.
